Data on 36 compounds can be found in the Kinase Knowledgebase extract (Sharma et al. 2016).

As a reminder, the Ki is the equilibrium dissociation constant of an inhibitor or competing ligand from its target. Read a low Ki as a stronger hold on the target.

The assay deals with PIK3CA (human) (UniProt P42336). The experiment in a line: Assessment of PIK3CA Kinase Activity.
PIK3CA (human), sequence (P42336 whole entry, looked up): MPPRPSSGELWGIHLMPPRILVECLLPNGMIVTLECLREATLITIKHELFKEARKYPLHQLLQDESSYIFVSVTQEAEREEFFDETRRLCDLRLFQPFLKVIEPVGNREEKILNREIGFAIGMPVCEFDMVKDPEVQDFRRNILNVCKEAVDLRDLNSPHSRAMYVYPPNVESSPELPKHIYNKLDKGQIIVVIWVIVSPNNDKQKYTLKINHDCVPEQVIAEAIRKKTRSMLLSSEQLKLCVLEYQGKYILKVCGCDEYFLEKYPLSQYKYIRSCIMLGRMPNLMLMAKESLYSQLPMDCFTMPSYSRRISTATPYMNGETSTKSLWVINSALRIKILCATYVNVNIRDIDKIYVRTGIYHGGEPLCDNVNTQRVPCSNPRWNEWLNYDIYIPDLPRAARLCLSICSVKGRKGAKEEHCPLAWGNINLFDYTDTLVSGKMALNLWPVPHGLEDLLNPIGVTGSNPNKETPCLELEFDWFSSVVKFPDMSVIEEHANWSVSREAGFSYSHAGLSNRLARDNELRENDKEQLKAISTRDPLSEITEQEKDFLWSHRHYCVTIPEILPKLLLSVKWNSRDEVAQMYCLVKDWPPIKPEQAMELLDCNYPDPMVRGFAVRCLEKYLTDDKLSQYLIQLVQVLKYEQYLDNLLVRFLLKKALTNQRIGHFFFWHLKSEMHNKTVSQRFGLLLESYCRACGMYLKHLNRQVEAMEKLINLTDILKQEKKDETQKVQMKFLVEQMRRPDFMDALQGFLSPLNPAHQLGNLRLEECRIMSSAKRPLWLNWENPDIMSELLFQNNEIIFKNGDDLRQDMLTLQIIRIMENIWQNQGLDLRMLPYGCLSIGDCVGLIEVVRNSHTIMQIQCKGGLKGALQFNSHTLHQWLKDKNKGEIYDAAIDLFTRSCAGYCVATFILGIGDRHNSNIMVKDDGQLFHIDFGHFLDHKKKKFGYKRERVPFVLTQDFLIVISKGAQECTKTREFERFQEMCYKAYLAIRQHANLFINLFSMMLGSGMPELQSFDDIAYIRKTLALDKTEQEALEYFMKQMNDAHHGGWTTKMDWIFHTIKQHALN
Take `COc1ncc(Nc2ncc([C@@H](C)CO)cc2-c2nc(C)nc(N)n2)cc1F`: the Ki is 9 nM.

Turning to `COc1ccc(Nc2ncc(CN3CCN(C)CC3)cc2-c2nc(C)nc(N)n2)cn1`, the inhibition constant Ki stood at 258 nM. Next, `COc1cnc(Nc2ccc(OC)nc2)c(-c2nc(C)nc(N)n2)c1`: 55 nM; `COc1cccc(Nc2cnc(Nc3ccc(OC)nc3)c(-c3nc(C)nc4[nH]cnc34)c2)c1`: 35 nM. Next, `COc1ncc(Nc2ncc(CN3CCN(C(=O)N(C)C4CC4)CC3)cc2-c2nc(C)nc(N)n2)cc1F`: 45 nM; `COc1ccc(Nc2ncc(CN3CC[C@@H](CO)C3)cc2-c2nc(C)nc(N)n2)cn1`: 278 nM; `COc1ccc(Nc2ncc(CO)cc2-c2nc(C)nc(N)n2)cn1`: 63 nM.

Compound `COCCNCc1cnc(Nc2ccc(OC)nc2)c(-c2nc(C)nc(N)n2)c1` gave a Ki of 283 nM. The compound `COc1ccc(Nc2ncc(CN3CCN(S(=O)(=O)N(C)C)CC3)cc2-c2nc(C)nc(N)n2)cn1` registered a Ki of 17 nM. Take `COc1ccc(Nc2ncc(CN3CCC3)cc2-c2nc(C)nc(N)n2)cn1`: the Ki came out at 160 nM. `COc1ccc(Nc2ncc(CN3CCCC3)cc2-c2nc(C)nc(N)n2)cn1` displayed a Ki of 266 nM. Compound `COc1ccc(Nc2ncc(CN3CCC(O)CC3)cc2-c2nc(C)nc(N)n2)cn1` came in with a Ki of 199 nM. Consider `COc1ccc(Nc2ncc(-c3cnn(C)c3)cc2-c2nc(C)nc(N)n2)cn1`, for which the Ki was found to be 8 nM.

In the case of `COCCOc1cnc(Nc2cnc(Cl)c(NS(C)(=O)=O)c2)c(-c2nc(C)nc(N)n2)c1`, the Ki was found to be 5 nM. Next, `COc1ncc(Nc2ncc([C@H](C)CO)cc2-c2nc(C)nc(N)n2)cc1F`: 7 nM.

Compound `COc1ccc(Nc2ncc([C@H](O)C(C)(C)C)cc2-c2nc(C)nc3[nH]cnc23)cn1` returned a Ki of 31 nM. Next, `COc1ccc(Nc2ncc(C(O)C(F)(F)F)cc2-c2nc(C)nc(N)n2)cn1` (stereo unspecified): 33 nM; `COc1cnc(Nc2cnc(Cl)c(NS(=O)(=O)N(C)C)c2)c(-c2nc(C)nc(N)n2)c1`: 14 nM.

`COc1ccc(Nc2ncc(CN3CCC(S(C)(=O)=O)CC3)cc2-c2nc(C)nc(N)n2)cn1` gave a Ki of 22 nM. `COc1ccc(Nc2ncc(CN3CCOCC3)cc2-c2nc(C)nc(N)n2)cn1` came in with a Ki of 104 nM.

In turn, `COc1ccc(Nc2ncccc2-c2nc(C)nc(N)n2)cn1` had a Ki of 107 nM. With `COc1ccc(Nc2ncc(CN3CCC(S(C)(=O)=O)C3)cc2-c2nc(C)nc(N)n2)cn1` (stereo unspecified) the figure was 16 nM. With `COc1ccc(Nc2ncc(CN3CCCCC3)cc2-c2nc(C)nc(N)n2)cn1` the figure was 153 nM; with `COc1ccc(Nc2ncc(C3=CCOCC3)cc2-c2nc(C)nc(N)n2)cn1`, 5 nM.

For the compound `COc1ccc(Nc2ncc([C@@H](O)C(C)(C)C)cc2-c2nc(C)nc3[nH]cnc23)cn1`, the Ki came to 12 nM. With `COc1ccc(Nc2ncccc2-c2ncnc3[nH]cnc23)cn1` the figure was 7280 nM.

As for `Cc1nc(N)nc(-c2cc([C@@H](C)N3CCOCC3)cnc2Nc2cnc(Cl)c(NS(C)(=O)=O)c2)n1`, the Ki came to 7 nM.

Regarding `COc1ccc(Nc2ncc(CN3CCNCC3)cc2-c2nc(C)nc(N)n2)cn1`, the Ki worked out at 61 nM. `COc1ccc(Nc2ncc(Cl)cc2-c2nc(C)nc(N)n2)cn1` came in with a Ki of 70 nM. `COc1ccc(Nc2ncc(C)cc2-c2nc(C)nc(N)n2)cn1` came in with a Ki of 242 nM.

Regarding `COc1ccc(Nc2ncc(CC3CCN(S(C)(=O)=O)CC3)cc2-c2nc(C)nc(N)n2)cn1`, the Ki was 9 nM.

`COc1ccc(Nc2ncc(Br)cc2-c2nc(C)nc(N)n2)cn1` showed a Ki of 247 nM. With `Cc1nc(N)nc(-c2cc(Cl)cnc2Nc2cnc(Cl)c(NS(=O)(=O)N(C)C)c2)n1` the figure was 2 nM; with `COc1ncc(Nc2ncc(CN3CCN(C(=O)N(C)CC(F)(F)F)CC3)cc2-c2nc(C)nc(N)n2)cc1F`, 24 nM.

The compound `Cc1nc(N)nc(-c2cccnc2Nc2cccc3[nH]ncc23)n1` displayed an inhibitory constant (Ki) of 33 nM.

`COc1ccc(Nc2ncc(Cc3ccccc3)cc2-c2nc(C)nc(N)n2)cn1` yielded a Ki of 65 nM.
